From US7276339B2 (H. Lundbeck A/S, priority 1998, dated 2007)
Read-outs that look alike come from different tables or passages of the source. No end group written: not given here.

What was measured:
[1] = after 30 minutes; cited from earlier work
rat NPFF2 receptor [2] = molecular target: T1, rat NPFF2 receptor (Rattus norvegicus, UniProt Q9EQD2); assay: Functional activity at cloned rat NPFF2 in COS-7 cells; assay type: cell-based
T1 construct: The full-length rat NPFF2 clone was amplified from rat spinal cord cDNA; expressed in transfected cells; host or cells: COS-7

rat NPFF1 receptor [3] = molecular target: T2, rat NPFF1 receptor (Rattus norvegicus, UniProt Q9EP86); assay: Functional activity at cloned rat NPFF1 in COS-7 cells; assay type: cell-based; set-up: expressed in transfected cells; host or cells: COS-7 (transient)
normotensive rats = assay: Blood pressure in anesthetized normotensive rats, intravenous administration; assay type: in vivo, rat
Description: Rats were anesthetized with urethane and PE50 cannulae were placed in the femoral artery and vein for blood pressure monitoring and drug administration, respectively.

NPFF-1 receptor = molecular target: T3, NPFF-1 receptor (Rattus norvegicus, UniProt Q9EP86); assay: Total inositol phosphate release, Cos-7 cells transiently transfected with NPFF1; assay type: cell-based
T3 construct: expressed in transfected cells; host or cells: COS-7 (transient), alone or co-transfected with Gq/Gz chimera

anesthetized rats = assay: Distension-induced rhythmic contraction (DIRC) model of the micturition reflex in anesthetized rats; assay type: in vivo, rat; details: i.v.
Procedure: The effects of compounds on the micturition reflex were assessed in the “distension-induced rhythmic contraction” (DIRC) model in rats. This model of the micturition reflex has been described in previous publications (e.g. 72, 73).
Female Sprague Dawley rats weighing approximately 300 g were anesthetized with subcutaneous urethane (1.2 g/kg). The trachea was cannulated with PE240 tubing to provide a clear airway throughout the experiment. A midline abdominal incision was made and the left and right ureters were isolated. The ureters were ligated distally (to prevent escape of fluids from the bladder) and cannulated proximally with PE10 tubing. The incision was closed using 4-0 silk sutures, leaving the PE10 lines routed to the exterior for the elimination of urine. The bladder was canulated via the transurethral route using PE50 tubing inserted 2.5 cm beyond the urethral opening. This cannula was secured to the tail using tape and connected to a pressure transducer. To prevent leakage from the bladder, the cannula was tied tightly to the exterior urethral opening using 4-0 silk.
To initiate the micturition reflex, the bladder was first emptied by applying pressure to the lower abdomen, and then filled with normal saline in 100 μl increments (maximum=2 ml) until spontaneous bladder contractions occurred (typically 20-40 mmHg at a rate of one contraction every 2 to 3 minutes. Once a regular rhythm was established, vehicle (saline) or test compounds were administered intravenously to examine their effects on bladder activity. The effect of a compound which inhibited the micturition reflex was expressed as its “disappearance time”, defined as the time between successive bladder contractions in the presence of the test compound minus the time between contractions before compound administration.

NPFF1 (SNORF2) = molecular target: T4, NPFF1 (SNORF2) (Rattus norvegicus, UniProt Q9EP86); assay: Voltage-clamp electrophysiology, Xenopus oocytes injected with SNORF2 (NPFF1) and chimeric Gαq/z RNA; assay type: cell-based; details: oocytes with SNORF2 + Gαq/z
T4 construct: linearized plasmids or PCR products containing the complete coding region of the genes; expressed in transfected cells; host or cells: Xenopus laevis oocytes injected with synthetic RNA (T7 transcripts)
Procedure: Oocytes were harvested from Xenopus laevis and injected with mRNA transcripts as previously described (Quick and Lester, 1994; Smith et al., 1997). […] Three to eight hours prior to recording, oocytes were injected with 500 pg Gαq/z mRNA in order to observe coupling to Ca^++ activated Cl^− currents. Dual electrode voltage clamp (Axon Instruments Inc.) was performed using 3 M KCl-filled glass microelectrodes having resistances of 1-2 Mohm. Unless otherwise specified, oocytes were voltage clamped at a holding potential of −80 mV. During recordings, oocytes were bathed in continuously flowing (1-3 ml/min) medium containing 96 mM NaCl, 2 mM KCl, 1.8 mM CaCl2, 1 mM MgCl2, and 5 mM HEPES, pH 7.5 (ND96). Drugs were applied either by local perfusion from a […] glass capillary tube fixed at a distance of 0.5 mm from the oocyte, or by switching from a series of gravity fed perfusion lines.
Heterologous expression of GPCRs in Xenopus oocytes has been widely used to determine the identity of signaling pathways activated by agonist stimulation (Gundersen et al., 1983; Takahashi et al., 1987). Activation of the phospholipase C (PLC) pathway is assayed by applying test compound in ND96 solution to oocytes previously injected with mRNA for the mammalian receptor and observing inward currents at a holding potential of −80 mV. The appearance of currents that reverse at −25 mV and display other properties of the Ca^++-activated Cl^− (chloride) channel is indicative of mammalian receptor-activation of PLC and release of IP3 and intracellular Ca^++.

rat NPFF2 receptor [4] = molecular target: T1, rat NPFF2 receptor; assay: [125I]D-Tyr-NPFF radioligand binding, cloned rat NPFF2; details: Table 3; title HEK-293 cells (text: Cos-7); [125I]D-Tyr-NPFF
Procedure: (§1) Transfected cells from culture flasks are scraped into 5 ml of 20 mM Tris-HCl, 5 mM EDTA, pH 7.5, and lysed by sonication. The cell lysates are centrifuged at 1000 rpm for 5 min. at 4° C., and the supernatant is centrifuged at 30,000×g for 20 min. at 4° C. The pellet is suspended in binding buffer (50 mM Tris-HCl, 60 mM NaCl, 1 mM MgCl, 33 μM EDTA, 33 μM EGTA at pH 7.4 supplemented with 0.2% BSA, 2 μg/ml aprotinin, and 20 μM bestatin). Optimal membrane suspension dilutions, defined as the protein concentration required to bind less than 10% of the added radioligand, are added to 96-well polpropylene microtiter plates containing ^3H-labeled compound, unlabeled compounds, and binding buffer to a final volume of 250 μl. In equilibrium saturation binding assays membrane preparations are incubated in the presence of increasing concentrations of [^3H]-labeled compound. The binding affinities of the different compounds are determined in equilibrium competition binding assays, using [^125I]-labeled compound in the presence of ten to twelve different concentrations of the displacing ligands. Competition assay: 50 pM radioligand, 10-12 points. Binding reaction mixtures are incubated for 2 hr at 25° C., and the reaction stopped by filtration through a double layer of GF filters treated with 0.1% polyethyleneimine, using a cell harvester. Wash buffer: 50 mM Tris-HCl, 0.1% BSA. Radioactivity may be measured by scintillation counting and data are analyzed by a computerized non-linear regression program. Non-specific binding is defined as the amount of radioactivity remaining after incubation of membrane protein in the presence of 1 μM final concentration […]. Protein concentration may be measured by the Bradford method using Bio-Rad Reagent, with bovine serum albumin as a standard.
(§2) Additional pharmacological evaluation was done using 293 human embryonic kidney cells (HEK-293 cells) transiently expressing the genes encoding the human NPFF1, NPFF2, and rat NPFF1 receptors, as well as Cos-7 cells expressing the rat NPFF2 receptors.

human NPFF1 receptor = molecular target: T5, human NPFF1 receptor (Homo sapiens, UniProt Q9GZQ6); assay: [125I]D-Tyr-NPFF radioligand binding, HEK-293 cells expressing human NPFF1; details: Table 3
T5 construct: To obtain a full-length hNPFF1 construct in the correct orientation; expressed in transfected cells; host or cells: HEK-293 (transient)
Procedure: as §1, §2

human NPFF2 receptor = molecular target: T6, human NPFF2 receptor (Homo sapiens, UniProt Q9Y5X5); assay: [125I]D-Tyr-NPFF radioligand binding, HEK-293 cells expressing human NPFF2; details: Table 3; HEK-293 cells; [125I]D-Tyr-NPFF
T6 construct: BO89, was determined to be a full length clone with no point mutations; expressed in transfected cells; host or cells: HEK-293 (transient)
Procedure: as §1, §2

rat NPFF1 receptor [5] = molecular target: T2, rat NPFF1 receptor; assay: [125I]D-Tyr-NPFF radioligand binding, HEK-293 cells expressing rat NPFF1; set-up: expressed in transfected cells; details: Table 3
Procedure: as §1, §2

[6] = 0.3 mg/kg, 1 minute before the agonist

T1 sequence (Q9EQD2 whole entry): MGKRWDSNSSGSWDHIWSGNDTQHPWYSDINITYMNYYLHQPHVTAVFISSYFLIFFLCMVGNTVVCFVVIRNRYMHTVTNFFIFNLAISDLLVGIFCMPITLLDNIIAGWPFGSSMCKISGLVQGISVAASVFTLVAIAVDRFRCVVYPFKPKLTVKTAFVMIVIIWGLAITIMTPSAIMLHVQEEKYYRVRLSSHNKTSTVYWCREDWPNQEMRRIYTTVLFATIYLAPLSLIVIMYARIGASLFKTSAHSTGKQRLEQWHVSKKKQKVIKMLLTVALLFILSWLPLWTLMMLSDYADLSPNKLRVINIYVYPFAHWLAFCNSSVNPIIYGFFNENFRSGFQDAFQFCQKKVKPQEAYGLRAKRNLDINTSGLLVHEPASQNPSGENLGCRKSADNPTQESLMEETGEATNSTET
T2 sequence (Q9EP86 whole entry): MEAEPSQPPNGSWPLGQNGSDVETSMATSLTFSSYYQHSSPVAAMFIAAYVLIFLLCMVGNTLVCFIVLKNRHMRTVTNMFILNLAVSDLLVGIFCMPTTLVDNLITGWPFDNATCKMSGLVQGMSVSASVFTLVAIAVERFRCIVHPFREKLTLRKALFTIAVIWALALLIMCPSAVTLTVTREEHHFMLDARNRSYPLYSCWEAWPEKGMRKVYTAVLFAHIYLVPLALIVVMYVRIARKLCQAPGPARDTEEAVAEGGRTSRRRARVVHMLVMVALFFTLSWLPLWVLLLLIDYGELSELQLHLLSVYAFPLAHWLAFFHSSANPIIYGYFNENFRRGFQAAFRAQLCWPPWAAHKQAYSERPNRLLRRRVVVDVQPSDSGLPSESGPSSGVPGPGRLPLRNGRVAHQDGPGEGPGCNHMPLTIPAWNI
T4 sequence (Q9EP86 whole entry): as above
T3 sequence (Q9EP86 whole entry): as above
T5 sequence (Q9GZQ6 whole entry): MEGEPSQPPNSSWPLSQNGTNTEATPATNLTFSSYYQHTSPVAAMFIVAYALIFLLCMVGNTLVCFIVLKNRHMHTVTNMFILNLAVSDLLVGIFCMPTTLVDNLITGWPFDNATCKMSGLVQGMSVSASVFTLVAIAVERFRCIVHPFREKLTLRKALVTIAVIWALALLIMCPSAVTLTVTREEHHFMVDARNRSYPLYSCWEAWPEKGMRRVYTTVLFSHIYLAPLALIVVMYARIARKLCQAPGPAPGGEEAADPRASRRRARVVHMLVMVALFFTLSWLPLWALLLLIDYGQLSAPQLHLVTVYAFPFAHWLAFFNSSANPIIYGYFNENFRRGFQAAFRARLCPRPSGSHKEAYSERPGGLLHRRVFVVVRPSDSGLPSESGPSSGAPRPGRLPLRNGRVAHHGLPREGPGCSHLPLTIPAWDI
T6 sequence (Q9Y5X5 103-522): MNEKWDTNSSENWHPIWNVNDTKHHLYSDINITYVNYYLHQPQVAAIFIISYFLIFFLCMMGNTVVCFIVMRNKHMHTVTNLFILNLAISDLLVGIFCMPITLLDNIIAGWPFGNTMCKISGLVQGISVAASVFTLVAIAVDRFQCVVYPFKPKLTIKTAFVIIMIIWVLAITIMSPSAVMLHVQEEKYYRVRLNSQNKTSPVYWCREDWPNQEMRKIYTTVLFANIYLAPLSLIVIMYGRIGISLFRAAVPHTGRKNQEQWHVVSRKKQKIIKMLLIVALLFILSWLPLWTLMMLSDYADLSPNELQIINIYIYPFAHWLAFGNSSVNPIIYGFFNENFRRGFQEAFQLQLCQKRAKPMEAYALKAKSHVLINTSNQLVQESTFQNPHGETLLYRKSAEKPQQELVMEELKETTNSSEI

Molecule: YLFQPQRF-NH2 [Y8Fa]
- degradation on incubation with rat spinal cord membranes [1]: fully degraded

Molecule: CC(C)C[C@H](NC(=O)[C@@H](N)Cc1ccccc1)C(=O)N[C@@H](Cc1ccccc1)C(=O)N[C@@H](CCC(N)=O)C(=O)N1CCC[C@H]1C(=O)N[C@@H](CCC(N)=O)C(=O)N[C@@H](CCCNC(=N)N)C(=O)N[C@@H](Cc1ccccc1)C(N)=O [NPFF]
- Maximum Effect (% NPFF), rat NPFF2 (rat NPFF2 receptor [2]): 100 % NPFF
- EC50 (rat NPFF1 receptor [3]): 9.3 nM
- Maximum Effect (% NPFF), rat NPFF1 (rat NPFF1 receptor [3]; COS-7 cells): 100 % NPFF
- effect on mean arterial blood pressure (MAP) (normotensive rats; i.v., NPFF 1.0 mg/kg, fPP 0.1 mg/kg): transient increase
- Emax, total IP release (NPFF-1 receptor; NPFF1 + Gq/Gz chimera): approximately 1500 % basal
- Emax, total IP release (NPFF-1 receptor; NPFF1 alone): approximately 200 % basal
- disappearance time of bladder contractions (anesthetized rats; 0.3 to 3.0 mg/kg): dose-dependently increased
- effect on distension-induced rhythmic contractions of the bladder (anesthetized rats; fPP 0.1 mg/kg): inhibited
- inward current response (NPFF1 (SNORF2); 1 μM, holding potential −80 mV): robust inward currents
- threshold for activation of inward current (NPFF1 (SNORF2)): 30 nM

Molecule: NC(N)=NCCC[C@@H](NC(=O)C(c1ccccc1)c1ccccc1)C(=O)NCc1ccc(O)cc1 [BIBP 3226]
- pKi ± SEM, rat NPFF2 (rat NPFF2 receptor [4]): 5.8±0.02
- pKi ± SEM, human NPFF1 (human NPFF1 receptor): 6.9 ± 0.04
- EC50 (rat NPFF2 receptor [2]): 944 nM
- Maximum Effect (% NPFF), rat NPFF2 (rat NPFF2 receptor [2]): 67 % NPFF
- Maximum Effect (% NPFF), rat NPFF1 (rat NPFF1 receptor [3]; COS-7 cells): 0 % NPFF
- EC50 (rat NPFF1 receptor [3]; COS-7 cells, read-out: EC50, rat NPFF1): > 10000 nM
- pKi ± SEM, human NPFF2 (human NPFF2 receptor): 5.9 ± 0.04
- block of pressor response to fPP (normotensive rats; [6]): completely blocked
- block of pressor response to pLeu,Pro-NPY (normotensive rats; [6]): completely blocked
- reduction of pressor response to NPFF (normotensive rats; [6]): ~50%
- pKi ± SEM, rat NPFF1 (rat NPFF1 receptor [5]): 7.6±0.04
- block of inhibitory effect of fPP on micturition (anesthetized rats; 0.3 mg/kg): not blocked
- block of inhibitory response to NPFF on micturition (anesthetized rats; 0.3 mg/kg): did not block
